Assay results reported in PMC3745399, “An NO Donor Approach to Neuroprotective and Procognitive Estrogen Therapy Overcomes Loss of NO Synthase Function and Potentially Thrombotic Risk” (PLoS ONE, 2013).
Where two headings read alike, the source gives them in different places.

What was measured:
ERβ = ERβ (Homo sapiens, UniProt Q92731); assay: ER binding affinity by competitive E2 displacement (ERβ)
Method: Raloxifene and DMA are structurally related SERMs acting as antagonists of estrogen action in mammary and endometrial cells. […] ER binding affinity was measured by competitive E2 displacement as previously described.

isolated rings of aortae = assay: Aortic ring relaxation; parameters: species or system rat
Method: Isolated rings of aortae from male Sprague-Dawley rats (250–300 g) were prepared for isometric tension measurements and were equilibrated for 1 h at an optimal resting tension of 10 mN. Tissues were contracted submaximally with 0.3 µM phenylepinephrine, and after 10–15 m cumulative concentration-response curves for SERMs (0.01–30 µM) were obtained. Some aortic ring preparations were denuded of the endothelium, or were treated with 100 µM L-NAME, prior to assessment of SERM-induced relaxation responses.

[1] = Anticoagulation: PT and aPTT after i.p. dosing; format: in vivo, mouse; conditions: for PT / aPTT / anticoagulant effect (PT, aPTT) at 3 h: C57Bl/6 mice, 2 mg/kg i.p.; for PT / aPTT: 1 h; for anticoagulation (PT and aPTT) with NOS blockade: L-NAME 50 mg/kg 30 min prior to collection, SERM 2 mg/kg 1 h prior
Method: Figure 6 Effect of SERMs and NO-SERM on […] clotting cascades. Blood was collected by cardiac puncture and PTT and aPTT were determined 1 or 3 h after i.p. drug administration (2 mg/kg).
SERMs were injected (i.p.) into 6–8 month old male C57Bl/6 mice 1 h before blood collection, and L-NAME was injected (i.p.) 30 min before blood collection. The mouse was sedated by exposing it to CO2 until unconscious and blood was collected in 4.5 mL BD Vacutainer Glass Evacuated Blood Collection Tubes (with 0.105 M buffered sodium citrate) by cardiac puncture. The blood samples were centrifuged at 300 g for 30 min to separate the plasma from the blood, and then 200 uL of plasma was taken from each sample and the PT and aPTT were measured using an ACL 7000 Coagulation Analyzer. The analyzer injects […] of PT-fibrinogen (lyophilized rabbit brain calcium thromboplastin with stabilizers, polybrene, buffer and preservatives) to 75 µL of plasma sample to measure the PT, and 75 µL of synthAFAX (0.025 M)+100 µL of CaCl2 (0.02 M) were added to 75 µL of plasma to measure aPTT. The analysis was at 37°C using a photo sensor at λ = 671 nm.

[2] = format: in vivo; conditions: mouse, ip, 5 mg/kg
Method: (§1) All experiments were performed on 6–8 month male C57B1/6 mice (Charles River Laboratory) or eNOS(−/−) animals. Animals were injected (i.p.) at various time points before sacrifice at the doses specified. After euthanasia via CO2, plasma was collected, and cortices and hippocampi were collected after PBS perfusion and stored at −80°C. Tissue samples were weighed and extracted with methanol. Plasma samples were extracted with cold acetonitrile. Quantitative analysis of drug concentrations in plasma and brain used internal standards spiked into plasma and brain homogenates before liquid extraction with acetonitrile or methanol, and separation and measurement was performed with LC-MS/MS tandem mass spectrometry. The supernatant (deproteinized) was analyzed by chemiluminescence with SIEVERS 280i nitric oxide analyzer.
Figure S3: SERM bioavailability in plasma and CNS of WT and eNOS (-/-) mice. […] (n=4).

[3] = NO levels (NOx) in hippocampus and plasma by chemiluminescence; format: in vivo, mouse; conditions: 2 mg/kg i.p., 1 h; for elevation of NOx in hippocampus / elevation of NOx in plasma: WT mice
Method: Brain and plasma NO levels were assessed by measuring metabolic oxidation products, NO2 ^−and NO3 ^− (NOx), using chemiluminescence detection.
Figure 5 Effects of SERM and NO-SERMon NO levels in plasma and brain of WT and eNOS (−/−) mice. Levels of NO were assessed by measuring breakdown products 1 h after i.p. injection of SERMs (2 mg/kg) using chemiluminescence detection.
as §1

ERα = target: T1, ERα (Homo sapiens, UniProt P03372); assay: ER binding affinity by competitive E2 displacement (ERα)
T1 sequence (P03372 1-595): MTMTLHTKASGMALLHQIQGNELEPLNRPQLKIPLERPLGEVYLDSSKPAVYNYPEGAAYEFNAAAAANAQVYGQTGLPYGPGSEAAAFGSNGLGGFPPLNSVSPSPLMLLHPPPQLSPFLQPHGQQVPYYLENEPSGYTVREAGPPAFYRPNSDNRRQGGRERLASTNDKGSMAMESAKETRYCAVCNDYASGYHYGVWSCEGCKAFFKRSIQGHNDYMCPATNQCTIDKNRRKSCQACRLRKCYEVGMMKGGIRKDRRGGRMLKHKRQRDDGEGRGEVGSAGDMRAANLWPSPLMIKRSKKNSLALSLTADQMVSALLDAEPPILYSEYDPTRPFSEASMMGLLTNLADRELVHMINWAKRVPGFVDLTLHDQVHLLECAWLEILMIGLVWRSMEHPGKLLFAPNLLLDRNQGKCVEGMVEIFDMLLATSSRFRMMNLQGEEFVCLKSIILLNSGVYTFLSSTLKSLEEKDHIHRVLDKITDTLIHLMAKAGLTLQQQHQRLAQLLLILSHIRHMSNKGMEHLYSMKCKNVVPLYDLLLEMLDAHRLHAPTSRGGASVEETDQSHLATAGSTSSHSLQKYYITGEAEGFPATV
Method: ER binding affinity was measured by competitive E2 displacement as previously described.

ERβ, sequence (Q92731 whole entry, species assumed): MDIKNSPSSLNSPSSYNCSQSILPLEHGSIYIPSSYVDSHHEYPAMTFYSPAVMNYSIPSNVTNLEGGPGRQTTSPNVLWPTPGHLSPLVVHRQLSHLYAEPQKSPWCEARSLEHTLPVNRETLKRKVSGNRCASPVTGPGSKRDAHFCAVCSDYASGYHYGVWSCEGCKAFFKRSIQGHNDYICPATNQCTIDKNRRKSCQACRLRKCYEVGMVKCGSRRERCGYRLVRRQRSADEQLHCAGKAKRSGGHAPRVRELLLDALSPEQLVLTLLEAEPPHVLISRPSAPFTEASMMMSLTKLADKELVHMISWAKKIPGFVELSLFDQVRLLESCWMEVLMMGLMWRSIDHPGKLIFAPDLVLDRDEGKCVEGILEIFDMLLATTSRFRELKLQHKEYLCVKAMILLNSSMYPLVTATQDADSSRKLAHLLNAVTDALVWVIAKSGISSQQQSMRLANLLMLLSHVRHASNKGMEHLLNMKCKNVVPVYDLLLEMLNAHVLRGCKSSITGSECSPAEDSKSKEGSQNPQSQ

Row | SMILES | IC50 (ERβ) | efficacy (maximal relaxation) (isolated rings of aortae; intact aortic rings) | EC50 (isolated rings of aortae; intact aortic rings contracted with phenylepinephrine, mean, S.D., read-out: EC50 for relaxation) | efficacy after endothelium removal or NOS inhibition (isolated rings of aortae; physical removal of the endothelium or L-NAME) | PT [1] | aPTT [1] | anticoagulant effect (PT, aPTT) at 3 h [1] | anticoagulation (PT and aPTT) with NOS blockade [1] | bioavailability in plasma and CNS ([2]; in vivo) | blood brain barrier permeability [2] | elevation of NOx in hippocampus [3] | elevation of NOx in plasma [3] | EC50 (isolated rings of aortae; endothelium-denuded tissues, read-out: EC50 for relaxation, endothelium-denuded) | potency relative to DMA (isolated rings of aortae; intact aortic rings) | EC50 (isolated rings of aortae; intact aortic rings, read-out: EC50 for relaxation) | EC50 (isolated rings of aortae; tissues treated with L-NAME 100 µM, read-out: EC50 for relaxation, L-NAME) | IC50 (ERα) | NOx in hippocampus, eNOS(−/−) ([3]; eNOS(−/−) mice) | NOx in plasma, eNOS(−/−) ([3]; eNOS(−/−) mice)
1 | Oc1ccc(-c2sc3cc(O)ccc3c2Oc2ccc(OCCN3CCCCC3)cc2)cc1 [DMA, desmethylarzoxifene] | 9.6 ± 1.9 nM | ~100 % relaxation | 3500 ± 2500 nM | significant decrease in the efficacy | showed a clear trend | significantly increased aPTT | decreased to that of control samples | did not persist in the presence of NOS blockade | substantial bioavailability with preferential retention in the hippocampus up to 2 h after administration | substantial blood brain barrier permeability | greater than twofold elevation | greater than twofold elevation |  |  |  |  |  |  | 
2 | O=[N+]([O-])OCCCC1CCN(CCOc2ccc(Oc3c(-c4ccc(O)cc4)sc4cc(O)ccc34)cc2)CC1 [NO-DMA, 3-(1-(2-(4-(6-hydroxy-2-(4-ydroxyphenyl)benzo[b]thiophen-3-yloxy)phenoxy)ethyl)piperidin-4-yl)propyl nitrate] | 24.4 ± 9.6 nM | ~100 % relaxation |  |  | significantly increased PT | significantly increased aPTT | remained significantly higher than control | significantly increased anticoagulation compared to control in both PT and aPTT |  |  | greater than twofold elevation | greater than twofold elevation | 900 ± 690 nM | at least ten-fold increased potency | 130 ± 90 nM | 1000 ± 540 nM | 21.4 ± 6.7 nM | increase NOx significantly, relative to DMA | increase NOx significantly, relative to DMA
